Data: patent publication US8927559B2, “Quinazolinone-type compounds as CRTH2 antagonists” (Merck Sharp & Dohme Corp., priority 2010, dated 2015)
pKi: −log10 of the molar value. “And” between values parts separate entries of the source, which are not always exact repeats. Equal entries are not always repeated. Where two headings read alike, the source gives them in different places.

Biological target: T1, CRTH2 receptor (hCRTH2) (Homo sapiens, UniProt Q9Y5Y4)
T1 construct: expressed in transfected cells; host or cells: HEK cells (HEK-hCRTH2 cell line), membranes
T1 sequence (Q9Y5Y4 1-395): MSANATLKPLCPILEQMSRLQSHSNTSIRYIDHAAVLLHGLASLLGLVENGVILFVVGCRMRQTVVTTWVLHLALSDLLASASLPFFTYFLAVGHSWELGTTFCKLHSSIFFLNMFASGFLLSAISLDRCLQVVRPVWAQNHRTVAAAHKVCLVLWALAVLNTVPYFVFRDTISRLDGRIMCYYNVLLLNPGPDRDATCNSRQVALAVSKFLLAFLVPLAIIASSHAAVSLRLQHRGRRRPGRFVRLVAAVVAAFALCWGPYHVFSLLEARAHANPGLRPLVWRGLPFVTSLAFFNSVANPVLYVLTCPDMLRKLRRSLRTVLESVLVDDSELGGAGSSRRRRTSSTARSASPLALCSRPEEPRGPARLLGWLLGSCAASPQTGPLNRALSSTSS
Assay: Radioligand binding assay ([3H]PGD2 competition, membranes of HEK-hCRTH2 cell line)
Conditions: 3.0 nM [3H]PGD2, HEK-hCRTH2 membranes, 60 min, room temperature
Experimental: Competing ligands were diluted in dimethylsulfoxide (Me2SO) that was kept constant at 1% (v/v) of the final incubation volume. The reaction was initiated by the addition of 8-20 μg of membrane protein prepared from a HEK-hCRTH2 cell line. Total and non-specific binding were determined in the absence and the presence of […] PGD2, respectively. […] The reaction was routinely conducted for 60 min at room temperature and terminated by rapid filtration through prewetted (0.3% polyethyleneimine) 96-well printed filtermate (Wallac) using a Tomtec harvester. After washing with cold buffer, the filter was dried for 2 minutes in microwave, and Meltilex Scintillator sheet (Wallac) was melted on for 2 min.

Structure (SMILES) | pKi (read-out: Ki) | pKi (Ki)
CC(c1ccccc1)C1(C)CC(c2ccc3c(=O)n(-c4ccc(F)cc4)c(CCCCC(=O)O)nc3c2)=NO1 (single isomer, unassigned) [Example 42G, 5-(3-(4-fluorophenyl)-7-(5-methyl-5-(1-phenylethyl)-4,5-dihydroisoxazol-3-yl)-4-oxo-3,4-dihydroquinazolin-2-yl)pentanoic acid] | 7.30 to 8.00 | 
O=C(O)CCCCc1nc2cc(-c3c[nH]nn3)ccc2c(=O)n1-c1ccc(F)cc1 [Example 18, 5-[3-(4-fluorophenyl)-4-oxo-7-(1H-1,2,3-triazol-4-yl)-3,4-dihydroquinazolin-2-yl]pentanoic acid] | 7.30 to 8.00 | 
C[C@]1(c2nc3ccccc3s2)CC(c2ccc3c(=O)n(-c4ccc(F)cc4)c(CCCCC(=O)O)nc3c2)=NO1 [Example 181] |  | ≥ 8.00
O=C(O)CSc1nc2cc(-c3cscn3)ccc2c(=O)n1-c1ccc(F)cc1 [Example 1K] | 7.30 to 8.00 | 
C[C@]1([C@@H](O)c2ccc(F)cc2)CC(c2ccc3c(=O)n(-c4ccc(F)cc4)c(CCCCC(=O)O)nc3c2)=NO1 [Example 290] | ≥ 8.00 | 
O=C(O)CCCCc1nc2cc(-c3cc(CNS(=O)(=O)Cc4ccccc4)on3)ccc2c(=O)n1-c1ccc(F)cc1 [Example 24J] | ≥ 8.00 | 
CC1(c2nc3cc(F)ccc3o2)CC(c2ccc3c(=O)n(-c4ccc(F)cc4)c(CCCCC(=O)O)nc3c2)=NO1 (centres unmarked) [Example 161] | ≥ 8.00 | 
O=C(O)CCCCc1nc2cc(-c3cc(C(O)c4ccc5ccccc5n4)on3)ccc2c(=O)n1-c1ccc(F)cc1 (centres unmarked) [Example 25H] | 7.30 to 8.00 | 
O=C(O)CCCCc1nc2cc(-c3cc(Cn4nnc5ccccc54)on3)ccc2c(=O)n1-c1ccc(F)cc1 [Example 111] | ≥ 8.00 | 
C[C@@]1(c2nc3cc(F)ccc3o2)CC(c2ccc3c(=O)n(-c4ccc(F)cc4)c(CCCCC(=O)O)nc3c2)=NO1 [Example 163] | ≥ 8.00 | 
COc1cccc(C2CC(c3ccc4c(=O)n(-c5ccc(Cl)cc5)c(CCCCC(=O)O)nc4c3)=NO2)c1 (centres unmarked) [Example 15o] | ≥ 8.00 | 
O=C(O)CCCCc1nc2cc(C3=NO[C@H](c4nc5ccc(Cl)cc5s4)C3)ccc2c(=O)n1-c1ccc(F)cc1 [Example 154] | ≥ 8.00 | 
C[C@@]1([C@H](O)c2ccccc2)CC(c2ccc3c(=O)n(-c4ccccc4)c(CCCCC(=O)O)nc3c2)=NO1 [Example 26J] | ≥ 8.00 | 
C[C@@]1(c2nc3cc(F)c(F)cc3[nH]2)CC(c2ccc3c(=O)n(-c4ccc(Cl)cc4)c(CCCCC(=O)O)nc3c2)=NO1 [Example 224] | ≥ 8.00 | 
O=C(O)CCCCc1nc2cc(-c3cc(Cc4ccccc4)on3)ccc2c(=O)n1-c1ccc(F)cc1 [Example 100] | ≥ 8.00 | 
N#Cc1ccc(C2CC(c3ccc4c(=O)n(-c5ccc(F)cc5)c(CCCCC(=O)O)nc4c3)=NO2)cc1 (centres unmarked) [Example 15Q] | ≥ 8.00 | 
C[C@@]1([C@@H](O)c2cccc(C#N)c2)CC(c2ccc3c(=O)n(-c4ccc(F)cc4)c(CCCCC(=O)O)nc3c2)=NO1 [Example 137] | ≥ 8.00 | 
O=C(O)CCCCc1nc2cc(-c3cc(C4CC4)no3)ccc2c(=O)n1-c1ccc(F)cc1 [Example 8C, 5-(7-(3-Cyclopropylisoxazol-5-yl)-3-(4-fluorophenyl)-4-oxo-3,4-dihydroquinazolin-2-yl)pentanoic acid] | 7.30 to 8.00 | 
CC1(c2nc3ccccc3s2)CC(c2ccc3c(=O)n(-c4ccc(F)cc4)c(CCCCC(=O)O)nc3c2)=NO1 (centres unmarked) [Example 170] |  | ≥ 8.00
C[C@@H](OCc1ccccc1)c1cc(-c2ccc3c(=O)n(-c4ccc(F)cc4)c(CCCCC(=O)O)nc3c2)no1 [Example 267] | 7.30 to 8.00 | 
C[C@@]1(C(=O)N2Cc3ccccc3C2)CC(c2ccc3c(=O)n(-c4ccc(F)cc4)c(CCCCC(=O)O)nc3c2)=NO1 [Example 238] | 7.30 to 8.00 | 
C[C@@]1(C(=O)Nc2cc(F)ccc2O)CC(c2ccc3c(=O)n(-c4ccc(F)cc4)c(CCCCC(=O)O)nc3c2)=NO1 [Example 190] | 7.00 to 7.30 and 7.02 | 
CC1(c2cccnc2)CC(c2ccc3c(=O)n(-c4ccc(F)cc4)c(CCCCC(=O)O)nc3c2)=NO1 (centres unmarked) [Example 253] | ≥ 8.00 | 
O=C(O)CCCCc1nc2cc(-c3cc(COCc4cccc(-c5ccccc5)c4)on3)ccc2c(=O)n1-c1ccc(F)cc1 [Example 281] | 7.30 to 8.00 | 
CC(c1ccc(F)cc1)c1cc(-c2ccc3c(=O)n(-c4ccc(F)cc4)c(CCCCC(=O)O)nc3c2)no1 (centres unmarked) [Example 260] | ≥ 8.00 | 

Structure (SMILES) | pKi (read-out: Ki) | pKi (Ki)
O=C(O)CCCCc1nc2cc(-c3noc(CCc4ccc(F)cc4)n3)ccc2c(=O)n1-c1ccc(F)cc1 [Example 241] | ≥ 8.00 | 
C[C@@H](OCc1ccc(F)c(F)c1)c1cc(-c2ccc3c(=O)n(-c4ccc(F)cc4)c(CCCCC(=O)O)nc3c2)no1 [Example 274] | 7.30 to 8.00 | 
Cc1ccc(S(=O)(=O)NCc2cc(-c3ccc4c(=O)n(-c5ccc(F)cc5)c(CCCCC(=O)O)nc4c3)no2)cc1 [Example 24G] | ≥ 8.00 | 
CC1(c2nc3ccccc3o2)CC(c2ccc3c(=O)n(-c4ccc(F)cc4)c(CCCCC(=O)O)nc3c2)=NO1 (single isomer, unassigned) [Example 35G, 5-(7-(5-(benzo[d]oxazol-2-yl)-5-methyl-4,5-dihydroisoxazol-3-yl)-3-(4-fluorophenyl)-4-oxo-3,4-dihydroquinazolin-2-yl)pentanoic acid] |  | 7.30 to 8.00
O=C(O)CCCCc1nc2cc(-c3cc([C@H](O)c4ccc(F)cc4)on3)ccc2c(=O)n1-c1ccccc1 [Example 25E] | ≥ 8.00 | 
CC(c1ccccc1)C1(C)CC(c2ccc3c(=O)n(-c4ccc(F)cc4)c(CCCCC(=O)O)nc3c2)=NO1 (single isomer, unassigned) [Example 42, 5-(3-(4-fluorophenyl)-7-(5-methyl-5-(1-phenylethyl)-4,5-dihydroisoxazol-3-yl)-4-oxo-3,4-dihydroquinazolin-2-yl)pentanoic acid] | ≥ 8.00 | 
O=C(O)CCCCc1nc2cc(-c3cc([C@@H](O)c4ccccc4)on3)ccc2c(=O)n1-c1ccc(F)cc1 [Example 101] | ≥ 8.00 | 
O=C(O)CCCCc1nc2cc(C3=NOC(c4ccncc4)C3)ccc2c(=O)n1-c1ccc(Cl)cc1 (centres unmarked) [Example 15M] | ≥ 8.00 | 
O=C(O)CCCCc1nc2cc(C3=NOC(c4cccc(Cl)c4)C3)ccc2c(=O)n1-c1ccc(F)cc1 (centres unmarked) [Example 15P] | ≥ 8.00 | 
C[C@]1(c2cc3ccccn3n2)CC(c2ccc3c(=O)n(-c4ccc(F)cc4)c(CCCCC(=O)O)nc3c2)=NO1 [Example 202] | 7.30 to 8.00 | 
C[C@@]1([C@@H](O)c2ccccc2)CC(c2ccc3c(=O)n(-c4ccc(F)cc4)c(CCCCC(=O)O)nc3c2)=NO1 [Example 26C] | 7.30 to 8.00 | 
C[C@@]1(C(=O)Nc2ccccc2O)CC(c2ccc3c(=O)n(-c4ccc(F)cc4)c(CCCCC(=O)O)nc3c2)=NO1 [Example 191] | ≥ 8.00 | 
C[C@@]1(Cc2ccccc2)CC(c2ccc3c(=O)n(-c4ccc(F)cc4)c(CCCCC(=O)O)nc3c2)=NO1 [Example 26, (R)-5-(7-(5-benzyl-5-methyl-4,5-dihydroisoxazol-3-yl)-3-(4-fluorophenyl)-4-oxo-3,4-dihydroquinazolin-2-yl)pentanoic acid] | ≥ 8.00 and 8.13 | 
O=C(O)CCCCc1nc2cc(-c3cc(COCc4ccc(F)c(F)c4)on3)ccc2c(=O)n1-c1ccc(F)cc1 [Example 270] | ≥ 8.00 | 
CC(CCCc1nc2cc(C3=NOC(C)([C@H](O)c4ccccc4)C3)ccc2c(=O)n1-c1ccc(F)cc1)C(=O)O (some centres unmarked) [Example 109] | 7.30 to 8.00 | 
O=C(O)CCCCc1nc2cc(C3=NOC[C@H](c4ccc(F)cc4)N3)ccc2c(=O)n1-c1ccc(F)cc1 [Example 37E] | ≥ 8.00 | 
O=C(O)CCCCc1nc2cc(C3=NO[C@H](c4nc5ccc(Cl)cc5o4)C3)ccc2c(=O)n1-c1ccc(F)cc1 [Example 152] | 7.30 to 8.00 | 
CC1(C(=O)Nc2ccc(F)cc2O)CC(c2ccc3c(=O)n(-c4ccc(F)cc4)c(CCCCC(=O)O)nc3c2)=NO1 (centres unmarked) [Example 229] | ≥ 8.00 | 
C[C@@]1([C@H](O)c2cccc(C#N)c2)CC(c2ccc3c(=O)n(-c4ccc(F)cc4)c(CCCCC(=O)O)nc3c2)=NO1 [Example 136] | ≥ 8.00 | 
O=C(O)CCCCc1nc2cc(-c3cc(CS(=O)(=O)c4nc5ccccc5[nH]4)on3)ccc2c(=O)n1-c1ccc(F)cc1 [Example 39L] | ≥ 8.00 | 
CCC1(c2ccccc2)CC(c2ccc3c(=O)n(-c4ccc(F)cc4)c(CCCCC(=O)O)nc3c2)=NO1 (centres unmarked) [Example 41] | ≥ 8.00 | 
CC[C@H](c1ccc(F)cc1)c1cc(-c2ccc3c(=O)n(-c4ccc(F)cc4)c(CCCCC(=O)O)nc3c2)no1 [Example 43, (R)-5-(3-(4-fluorophenyl)-7-(5-(1-(4-fluorophenyl)propyl)isoxazol-3-yl)-4-oxo-3,4-dihydroquinazolin-2-yl)pentanoic acid] | ≥ 8.00 | 
CC1(c2cc(F)cc(F)c2)CC(c2ccc3c(=O)n(-c4ccc(F)cc4)c(CCCCC(=O)O)nc3c2)=NO1 (centres unmarked) [Example 126] |  | 7.30 to 8.00
CO[C@H](c1ccccc1)c1cc(-c2ccc3c(=O)n(-c4ccc(F)cc4)c(CCCCC(=O)O)nc3c2)no1 [Example 149] | ≥ 8.00 | 
O=C(O)CCCCc1nc2cc(-c3ccon3)ccc2c(=O)n1-c1ccc(F)cc1 [Example 5K] | 7.30 to 8.00 | 
